Laboratory results reported in article PMC11722180, “Structure–Activity Relationship Studies of Tetracyclic Pyrrolocarbazoles Inhibiting Heterotetrameric Protein Kinase CK2” (Molecules, 2024).
Where a name gives a salt, the structure may show the parent alone.

Tests used:
[1] = target: T1, CK2α/CK2β interaction (human CK2α1–335, human CK2β1–193) (Homo sapiens, UniProt P68400); assay: Microscale thermophoresis (MST) assay of the CK2α/CK2β subunit interaction; format: binding; conditions: for Ki / Inhibition of CK2α/CK2β Interaction Ki: MST, global analysis, KD′ = KD [1 + (ccompound/Ki)], n.s. = KD′ not significantly different from KD; for Ki: read-out: Inhibition of CK2α/CK2β Interaction Ki
T1 construct: human CK2α^1–335; made in house
T1 sequence (P68400 1-335): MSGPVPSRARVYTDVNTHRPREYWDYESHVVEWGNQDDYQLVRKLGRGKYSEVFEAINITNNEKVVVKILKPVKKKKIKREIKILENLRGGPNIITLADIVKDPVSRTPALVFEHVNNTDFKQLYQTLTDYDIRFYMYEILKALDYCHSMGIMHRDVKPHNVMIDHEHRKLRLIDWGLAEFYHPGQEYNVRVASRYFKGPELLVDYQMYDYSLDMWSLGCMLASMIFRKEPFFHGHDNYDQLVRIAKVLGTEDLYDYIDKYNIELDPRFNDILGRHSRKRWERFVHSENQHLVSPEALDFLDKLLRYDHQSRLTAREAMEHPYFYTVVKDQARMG
Method: A microscale thermophoresis (MST) assay was used to determine the interaction of the CK2α and CK2β subunits. In this assay, a constant concentration of the fluorescently labeled CK2β subunit was added to increasing concentrations of the CK2α subunit and the thermophoretic shift was recorded, respectively. […] The same experiment was performed in the presence of 20, 50, or 100 µM of the test compounds (see Table 1). An increased KD′ value in the presence of the test compounds was evaluated as the inhibition of the association of the CK2α and CK2β subunits. The increased KD′ value was then transformed together with the employed concentration of the test compound into the Ki value for the inhibition of the CK2α/CK2β association (formula see Supporting Information).
The compounds were investigated at a final concentration of 20, 50, or 100 µM. […] Data analysis and statistical evaluation were conducted with GraphPad Prism v.6 for Windows (GraphPad Software, La Jolla, CA, USA, www.graphpad.com).

CK2 = conditions: cited from earlier work; for IC50: ATP competitive, read-out: CK2 inhibition IC50
[2] = tested on: human prostate tumor cell line; parameters: method as in PMID 39698287; conditions: cited from earlier work
CK2α subunit = tested on: CK2α subunit; parameters: method as in PMID 18553057; conditions: read-out: Inhibition of the kinase activity of the CK2α subunit IC50; cited from earlier work
CK2α/CK2β interaction = conditions: read-out: Inhibition of CK2α/CK2β interaction IC50; cited from earlier work
CK2 holoenzyme (CK2α2β2) = target: T2, CK2 holoenzyme (CK2α2β2) (Homo sapiens, UniProt P68400); assay: Capillary electrophoresis assay, inhibition of the CK2 holoenzyme kinase activity; format: biochemical
T2 construct: made in house; host or cells: E. coli BL21(DE3)
Method: The inhibition of the catalytic activity of the CK2 holoenzyme (CK2α2β2) was determined in an enzyme assay. In brief, the CK2 holoenzyme was incubated with the decapeptide […] and ATP. The amount of phosphorylated peptide (Ser7) was recorded by capillary electrophoresis (CE).
The capillary electrophoresis assay to determine the inhibition of the CK2 holoenzyme (CK2α2β2) was performed as described in refs. [40, 46]. The CK2 holoenzyme was recombinantly expressed in E. coli BL21(DE3) and purified according to the protocol by Grankowski et al.. Enzymatic activity was determined in the presence of 1 µg of CK2α2β2, 60 µM of ATP, and 114 µM of the substrate peptide […]. The assay buffer contained 60 mM NaCl and 10 mM MgCl2. Inhibition was determined in three independent experiments at a compound concentration of 10 µM, and the mean value and the standard deviation (SD) were calculated.

T2 sequence (P68400 whole entry): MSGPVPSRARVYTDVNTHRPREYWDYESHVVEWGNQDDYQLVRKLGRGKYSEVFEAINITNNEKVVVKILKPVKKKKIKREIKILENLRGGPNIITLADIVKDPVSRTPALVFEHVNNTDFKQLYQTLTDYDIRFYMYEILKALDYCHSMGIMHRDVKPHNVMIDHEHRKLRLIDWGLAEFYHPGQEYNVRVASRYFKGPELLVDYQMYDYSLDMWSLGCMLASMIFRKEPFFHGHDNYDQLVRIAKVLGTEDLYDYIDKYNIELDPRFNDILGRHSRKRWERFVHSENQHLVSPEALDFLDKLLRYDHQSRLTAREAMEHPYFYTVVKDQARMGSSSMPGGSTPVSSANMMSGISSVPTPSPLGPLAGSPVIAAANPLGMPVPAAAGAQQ

| Kd [1] [nM] | Ki [1] [nM] | Inhibition of CK2α/CK2β Interaction Ki [1] | Structure (SMILES) | also measured |
| --- | --- | --- | --- | --- |
| 93 ± 13 | 7100 |  | COc1cc([C@@H]2c3c([nH]c4ccccc34)[C@@H](C(=O)Nc3nc4ccccc4[nH]3)[C@@H]3C(=O)NC(=O)[C@H]23)cc(OC)c1OC (racemic) [(±)-17, (3aRS,4SR,10RS,10aRS)-N-(1H-Benzimidazol-2-yl)-1,3-dioxo-10-(3,4,5-trimethoxyphenyl)-1,2,3,3a,4,5,10,10a-octahydropyrrolo[3,4-b]carbazole-4-carboxamide] |  |
| 20 ± 10 |  | n.s. | CCOC(=O)[C@@H]1c2[nH]c3ccccc3c2[C@@H](c2ccc([N+](=O)[O-])cc2)[C@H]2C(=O)NC(=O)[C@H]21 (racemic) [(±)-21a, Ethyl (3aRS,4SR,10RS,10aRS)-10-(4-nitrophenyl)-1,3-dioxo-1,2,3,3a,4,5,10,10a-octahydropyrrolo[3,4-b]carbazole-4-carboxylate] |  |
| 31 ± 11 |  | n.s. | CCOC(=O)[C@H]1c2[nH]c3ccccc3c2[C@H](c2ccc(N)cc2)[C@@H]2C(=O)NC(=O)[C@@H]21 (racemic) [(±)-22a, Ethyl (3aRS,4SR,10RS,10aRS)-10-(4-aminophenyl)-1,3-dioxo-1,2,3,3a,4,5,10,10a-octahydropyrrolo[3,4-b]carbazole-4-carboxylate∙HCl] |  |
| 25 ± 15 |  | n.s. | CCOC(=O)[C@H]1c2[nH]c3ccccc3c2[C@H](c2ccc(N)cc2)[C@@H]2C(=O)N(Cc3ccccc3)C(=O)[C@@H]21 (racemic) [(±)-22c, Ethyl (3aRS,4SR,10RS,10aRS)-10-(4-aminophenyl)-2-benzyl-1,3-dioxo-1,2,3,3a,4,5,10,10a-octahydropyrrolo[3,4-b]carbazole-4-carboxylate∙HCl] | Inhibition of CK2α/CK2β Interaction Ki ([1]; listed as 22c): did not result in a significant inhibition |
| 24 ± 9 |  | n.s. | CCOC(=O)[C@@H]1c2[nH]c3ccccc3c2[C@@H](c2ccc(NC(=O)c3ccc(OC)cc3)cc2)[C@H]2C(=O)N(Cc3ccccc3)C(=O)[C@H]21 (racemic) [(±)-23, Ethyl (3aRS,4SR,10RS,10aRS)-2-benzyl-10-[4-(4-methoxybenzamido)phenyl]-1,3-dioxo-1,2,3,3a,4,5,10,10a-octahydropyrrolo[3,4-b]carbazole-4-carboxylate] | Inhibition of CK2α/CK2β Interaction Ki ([1]; listed as 23): did not result in a significant inhibition |
| 94 ± 24 | 7700 |  | COC(=O)[C@H](CCSC)NC(=O)[C@@H]1c2[nH]c3ccccc3c2[C@@H](c2cc(OC)c(OC)c(OC)c2)[C@H]2C(=O)NC(=O)[C@H]21 [(–)-19b, Methyl N-{[(3aR,4S,10R,10aR)-1,3-dioxo-10-(3,4,5-trimethoxyphenyl)-1,2,3,3a,4,5,10,10a-octahydropyrrolo[3,4-b]carbazol-4-yl]carbonyl}-(S)-methioninate] |  |
| 29 ± 7 |  | n.s. | COC(=O)[C@H](Cc1c[nH]cn1)NC(=O)[C@@H]1c2[nH]c3ccccc3c2[C@@H](c2cc(OC)c(OC)c(OC)c2)[C@H]2C(=O)NC(=O)[C@H]21 [(–)-20b, methyl N-{[(3aR,4S,10R,10aR)-1,3-dioxo-10-(3,4,5-trimethoxyphenyl)-1,2,3,3a,4,5,10,10a-octahydropyrrolo[3,4-b]carbazol-4-yl]carbonyl}-(S)-histidinate] |  |

Further lines, the compound ahead of its results:

| Structure (SMILES) | Kd [1] [nM] | Ki [1] [nM] | Inhibition of CK2α/CK2β Interaction Ki [1] | also measured |
| --- | --- | --- | --- | --- |
| Cc1ccc(N/C=C2\C(=O)CCc3c2oc2c(Cl)c(Cl)c(O)cc32)cc1 [2a] |  |  |  | IC50 (CK2): 29 nM |
| O=C1CCc2c(oc3cc(Br)c(O)c(Br)c23)/C1=C/Nc1ccccc1 [2b] |  |  |  | IC50 (CK2): 5.8 nM; Antiproliferative activity [2]: showed antiproliferative activity |
| COc1cc([C@H]2c3c([nH]c4ccccc34)[C@@H](C(=O)N3C(=O)OC[C@@H]3Cc3ccccc3)[C@H]3C(=O)OC(=O)[C@@H]23)cc(OC)c1OC [(+)-4 (W16)] |  |  |  | IC50 (CK2α subunit): 20000 nM; IC50 (CK2α/CK2β interaction): […] |
| COC(=O)[C@H](CO)NC(=O)[C@H]1c2[nH]c3ccccc3c2[C@H](c2cc(OC)c(OC)c(OC)c2)[C@@H]2C(=O)NC(=O)[C@@H]21 [(+)-18a, Methyl N-{[(3aS,4R,10S,10aS)-1,3-dioxo-10-(3,4,5-trimethoxyphenyl)-1,2,3,3a,4,5,10,10a-octahydropyrrolo[3,4-b]carbazol-4-yl]carbonyl}-(S)-serinate] | 72 ± 2 | 9100 |  |  |
| COC(=O)[C@H](Cc1c[nH]cn1)NC(=O)[C@H]1c2[nH]c3ccccc3c2[C@H](c2cc(OC)c(OC)c(OC)c2)[C@@H]2C(=O)NC(=O)[C@@H]21 [(+)-20a, Methyl N-{[(3aS,4R,10S,10aS)-1,3-dioxo-10-(3,4,5-trimethoxyphenyl)-1,2,3,3a,4,5,10,10a-octahydropyrrolo[3,4-b]carbazol-4-yl]carbonyl}-(S)-histidinate∙HCl] | 101 ± 4 | 6100 |  | IC50 (CK2 holoenzyme (CK2α2β2); CE assay, 60 µM ATP, 114 µM peptide […]): 2500 nM; inhibition at 10 µM (CK2 holoenzyme (CK2α2β2); first screening, test compound concentration 10 µM, read-out: Enzyme inhibition of CK2 holoenzyme): > 50% |
| NCc1cc(Cl)cc(-c2cccc3[nH]ccc23)c1 [CAM187] |  |  |  | Effect on kinase activity of CK2 (CK2): not significantly affected |
